Experimental data reported in US4051253A, “Microbicidal nitrofuryl compounds” (Byk Gulden Lomberg Chemische Fabrik GmbH, priority 1974, dated 1977).
Values after ≈ are worked out from the molar mass of the structure shown. Like-named read-outs stand apart in the source and are kept apart here.

What was measured:
[1] = tested on: C. Paracrusei 45; assay: microbe, parasite or virus in culture; assay type: cell-based; conditions: for MBC: read-out: Concentration from which subcultures no longer started; for MIC: read-out: Minimum inhibiting concentration (MHK), series dilution test
[2] = in vivo; conditions: mouse
[3] = tested on: streptococci group A 807; assay: microbe, parasite or virus in culture; assay type: cell-based; conditions: for MIC: read-out: Minimum inhibiting concentration (MHK), series dilution test
[4] = tested on: C. Albicans 49; assay: microbe, parasite or virus in culture; assay type: cell-based; conditions: Candida albicans; for MIC: read-out: Minimum inhibiting concentration (MHK), series dilution test
[5] = tested on: Trichomonas foetus; assay: Infection tests with Trichomonas foetus in mice; assay type: in vivo; conditions: for % of Animals Dying After Infection (Mean Value): stomach tube, 3 successive days, NMRI mice
[6] = tested on: streptoc. group B 779; assay: microbe, parasite or virus in culture; assay type: cell-based; conditions: for MBC: read-out: Concentration from which subcultures no longer started; for MIC: read-out: Minimum inhibiting concentration (MHK), series dilution test
[7] = tested on: Staph. aur. PCI 1203; assay: microbe, parasite or virus in culture; assay type: cell-based; conditions: for MBC: read-out: Concentration from which subcultures no longer started; for MIC: read-out: Minimum inhibiting concentration (MHK), series dilution test
[8] = tested on: enterococci; assay: microbe, parasite or virus in culture; assay type: cell-based; conditions: for MIC: read-out: Minimum inhibiting concentration (MHK), series dilution test
[9] = tested on: 9 bacteria and 2 yeast strains; assay: In vitro tests with 9 bacteria and 2 yeast strains (summary); assay type: cell-based; conditions: Table 2
[10] = tested on: streptococci group C 805; assay: microbe, parasite or virus in culture; assay type: cell-based; conditions: for MBC: read-out: Concentration from which subcultures no longer started; for MIC: read-out: Minimum inhibiting concentration (MHK), series dilution test
[11] = tested on: Staph. aur. SG 511; assay: microbe, parasite or virus in culture; assay type: cell-based; conditions: for MIC: read-out: Minimum inhibiting concentration (MHK), series dilution test
[12] = tested on: S. typhimurium G 46
[13] = tested on: E. coli 6106; assay: microbe, parasite or virus in culture; assay type: cell-based; conditions: for MIC: read-out: Minimum inhibiting concentration (MHK), series dilution test
[14] = tested on: Serratia marcescens strain HY/a 21
[15] = tested on: Klebs. pneum. PCI 602; assay: microbe, parasite or virus in culture; assay type: cell-based; conditions: for MBC: read-out: Concentration from which subcultures no longer started; for MIC: read-out: Minimum inhibiting concentration (MHK), series dilution test
[16] = tested on: Ps. aeruginosa 2; assay: microbe, parasite or virus in culture; assay type: cell-based; conditions: for MIC: read-out: Minimum inhibiting concentration (MHK), series dilution test
[17] = subcultures applied after 48 h, read after 24 h
[18] = 24 h, read-out: Concentration from which subcultures no longer started, subcultures applied after 24 h, read after 24 h
[19] = 48 h, read-out: Concentration from which subcultures no longer started, subcultures applied after 48 h, read after 48 h
[20] = read-out: Concentration from which subcultures no longer started, subcultures applied after 24 h, read after 48 h
[21] = read-out: Concentration from which subcultures no longer started, subcultures applied after 48 h, read after 24 h

## Cc1ccccc1C(=O)NN=CC=Cc1ccc([N+](=O)[O-])o1 [A, 5-nitro-2-[(o-toluoylhydrazono)propen-1-yl]furan]
[1]; 24 h
  MBC: 125 µg/mL (≈ 418 µM)
  MIC: 62.5 µg/mL (≈ 209 µM)
[1]; 48 h
  MBC: 125 µg/mL (≈ 418 µM)
  MIC: 125 µg/mL (≈ 418 µM)
[1]
  MBC: 125 µg/mL (≈ 418 µM)
[1]; [17]
  Concentration from which subcultures no longer started: 125 µg/mL
[2]
  LD50: > 2000 mg/kg
[3]; [18]
  MBC: 125 µg/mL (≈ 418 µM)
[3]; 24 h
  MIC: 31.2 µg/mL (≈ 104 µM)
[3]; [19]
  MBC: 125 µg/mL (≈ 418 µM)
[3]; 48 h
  MIC: 31.2 µg/mL (≈ 104 µM)
[3]; [20]
  MBC: 125 µg/mL (≈ 418 µM)
[3]; [21]
  MBC: 62.5 µg/mL (≈ 209 µM)
[4]; [18]
  MBC: 62.5 µg/mL (≈ 209 µM)
[4]; 24 h
  MIC: 62.5 µg/mL (≈ 209 µM)
[4]; [19]
  MBC: 125 µg/mL (≈ 418 µM)
[4]; 48 h
  MIC: 62.5 µg/mL (≈ 209 µM)
[4]; [20]
  MBC: 62.5 µg/mL (≈ 209 µM)
[4]; [21]
  MBC: 125 µg/mL (≈ 418 µM)
[5]; 3.12 mg/kg
  % of Animals Dying After Infection (Mean Value): 91.66%
[5]; 6.25 mg/kg
  % of Animals Dying After Infection (Mean Value): 36.33%
[5]; 12.5 mg/kg
  % of Animals Dying After Infection (Mean Value): 3.33%
[5]; dose of 6.25 mg/kg, mice infected with T. foetus
  animals survived / survival rate: 63.3%
[5]; infected mice
  activity against T. foetus compared with metronidazol (in words): substantially better activity in mice infected with T. foetus
[6]; 24 h
  MBC: 500 µg/mL (≈ 1670 µM)
  MIC: 250 µg/mL (≈ 835 µM)
[6]; 48 h
  MBC: 500 µg/mL (≈ 1670 µM)
  MIC: 500 µg/mL (≈ 1670 µM)
[6]
  MBC: 500 µg/mL (≈ 1670 µM)
[6]; [17]
  Concentration from which subcultures no longer started: 500 µg/mL
[7]; 24 h
  MBC: 31.2 µg/mL (≈ 104 µM)
  MIC: 15.6 µg/mL (≈ 52.1 µM)
[7]; 48 h
  MBC: 31.2 µg/mL (≈ 104 µM)
  MIC: 31.2 µg/mL (≈ 104 µM)
[7]
  MBC: 31.2 µg/mL (≈ 104 µM)
[7]; [17]
  Concentration from which subcultures no longer started: 31.25 µg/mL
[8]; [18]
  MBC: 250 µg/mL (≈ 835 µM)
[8]; 24 h
  MIC: 62.5 µg/mL (≈ 209 µM)
[8]; [19]
  MBC: 500 µg/mL (≈ 1670 µM)
[8]; 48 h
  MIC: 250 µg/mL (≈ 835 µM)
[8]; [20]
  MBC: 250 µg/mL (≈ 835 µM)
[8]; [21]
  MBC: 500 µg/mL (≈ 1670 µM)
[9]
  in vitro antibacterial/antiyeast effect compared with metronidazol (in words): substantially more favorable picture
[10]; 24 h
  MBC: 500 µg/mL (≈ 1670 µM)
  MIC: 250 µg/mL (≈ 835 µM)
[10]; 48 h
  MBC: 500 µg/mL (≈ 1670 µM)
  MIC: 250 µg/mL (≈ 835 µM)
[10]
  MBC: 500 µg/mL (≈ 1670 µM)
[10]; [17]
  Concentration from which subcultures no longer started: 500 µg/mL
[11]; [18]
  MBC: 125 µg/mL (≈ 418 µM)
[11]; 24 h
  MIC: 31.2 µg/mL (≈ 104 µM)
[11]; [19]
  MBC: 31.2 µg/mL (≈ 104 µM)
[11]; 48 h
  MIC: 31.2 µg/mL (≈ 104 µM)
[11]; [20]
  MBC: 125 µg/mL (≈ 418 µM)
[11]; [21]
  MBC: 31.2 µg/mL (≈ 104 µM)
[12]; 200 mg/kg per os
  Mutants/ml, Test: 0 Mutants/ml
[12]; 400 mg/kg per os
  Mutants/ml, Test: 0 Mutants/ml
[12]; Table 3b
  mutagenicity, host mediated assay (in words): no mutants induced by A are observed
[12]; in vivo
  Mutation frequency in test animals: 0
[13]; Escherichia coli, 6106, 24 h, read-out: Concentration from which subcultures no longer started
  MBC: 62.5 µg/mL (≈ 209 µM)
[13]; Escherichia coli, 6106, 24 h
  MIC: 31.2 µg/mL (≈ 104 µM)
[13]; Escherichia coli, 6106, 48 h, read-out: Concentration from which subcultures no longer started
  MBC: 62.5 µg/mL (≈ 209 µM)
[13]; Escherichia coli, 6106, 48 h
  MIC: 62.5 µg/mL (≈ 209 µM)
[13]; Escherichia coli, 6106, read-out: Concentration from which subcultures no longer started
  MBC: 62.5 µg/mL (≈ 209 µM)
[13]; [17]
  Concentration from which subcultures no longer started: 62.5 µg/mL
[14]
  Mutation frequency: 0
[14]; Table 3a
  mutagenicity, spot test (in words): no mutants induced by A are observed
[15]; 24 h
  MBC: 31.2 µg/mL (≈ 104 µM)
  MIC: 7.8 µg/mL (≈ 26.1 µM)
[15]; 48 h
  MBC: 31.2 µg/mL (≈ 104 µM)
  MIC: 7.8 µg/mL (≈ 26.1 µM)
[15]
  MBC: 31.2 µg/mL (≈ 104 µM)
[15]; [17]
  Concentration from which subcultures no longer started: 31.25 µg/mL
[16]; Pseudomonas aeruginosa, 2, 24 h, read-out: Concentration from which subcultures no longer started
  MBC: 250 µg/mL (≈ 835 µM)
[16]; Pseudomonas aeruginosa, 2, 24 h
  MIC: 250 µg/mL (≈ 835 µM)
[16]; Pseudomonas aeruginosa, 2, 48 h, read-out: Concentration from which subcultures no longer started
  MBC: 250 µg/mL (≈ 835 µM)
[16]; Pseudomonas aeruginosa, 2, 48 h
  MIC: 250 µg/mL (≈ 835 µM)
[16]; Pseudomonas aeruginosa, 2, read-out: Concentration from which subcultures no longer started
  MBC: 250 µg/mL (≈ 835 µM)
[16]; [17]
  Concentration from which subcultures no longer started: 250 µg/mL
